Like-named read-outs stand apart in the source and are kept apart here.
Molecular target: BCL6 (Homo sapiens (Human), UniProt P41182)
Assay: Immunofluorescence high content imaging of BCL6 degradation in T47D cells
Format: cell-based
Settings: for DC50: class symbols A-D, read-out: EC50 (nM)*
Procedure, shortened: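 Seed T47D in RPMI1640-10% FBS to reach ~70-90% confluence at endpoint; add degrader next day (11-point 3-fold series, top 0.1 or 1 μM final) for 3 days. Then fix, permeabilize, stain BCL6 with nuclear Hoechst, and image.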

Compound	DC50	IC50 (T47D cells)	other results
CNC(=O)COc1cc2cc(Nc3nc(N4CCC(OCCOCCOCCOCCOCCOCCOc5cc(-c6scnc6C)ccc5CNC(=O)[C@@H]5C[C@@H](O)CN5C(=O)C(c5cc(C)no5)C(C)C)CC4)ncc3Cl)ccc2n(C)c1=O (stereo partly drawn) [compound 58, (2S,4R)-N-(2-((17-((1-(5-chloro-4-((1-methyl-3-(2-(methylamino)-2-oxoethoxy)-2-oxo-1,2-dihydroquinolin-6-yl)amino)pyrimidin-2-yl)piperidin-4-yl)oxy)-3,6,9,12,15-pentaoxaheptadecyl)oxy)-4-(4-methylthiazol-5-yl)benzyl)-4-hydroxy-1-(3-methyl-2-(3-methylisoxazol-5-yl)butanoyl)pyrrolidine-2-carboxamide]	> 100 nM	–	–
CNC(=O)COc1cc2cc(Nc3nc(N4CCC(OC5CC6(CCN(c7cccc8c7C(=O)N(C7CCC(=O)NC7=O)C8=O)CC6)C5)CC4)ncc3Cl)ccc2n(C(C)C)c1=O (centres unmarked) [compound 391, 2-{[6-({5-chloro-2-[4-({7-[2-(2,6-dioxopiperidin-3-yl)-1,3-dioxo-2,3-dihydro-1H-isoindol-4-yl]-7-azaspiro[3.5]nonan-2-yl}oxy)piperidin-1-yl]pyrimidin-4-yl}amino)-2-oxo-1-(propan-2-yl)-1,2-dihydroquinolin-3-yl]oxy}-N-methylacetamide]	–	< 10 nM	Dmax (T47D cells): ≥ 70%
CNC(=O)COc1cc2cc(Nc3nc(N4CCC(CN5[C@H](C)CN(c6ccc(C(=O)NC7CCC(=O)NC7=O)c(F)c6)C[C@@H]5C)CC4)ncc3Cl)ccc2n(C)c1=O (stereo partly drawn) [compound 288, 4-[(3R,5S)-4-({1-[5-chloro-4-({1-methyl-3-[(methylcarbamoyl)methoxy]-2-oxo-1,2-dihydroquinolin-6-yl}amino)pyrimidin-2-yl]piperidin-4-yl}methyl)-3,5-dimethylpiperazin-1-yl]-N-(2,6-dioxopiperidin-3-yl)-2-fluorobenzamide]	–	–	IC50: 50 to 100 nM; Dmax (T47D): 50 to 70%
CNC(=O)COc1cc2cc(Nc3nc(N4CCC(F)(CN5CCN(c6cccc7c6C(=O)N(C6CCC(=O)NC6=O)C7=O)CC5)CC4)ncc3Cl)ccc2n(C)c1=O (centres unmarked) [compound 342, 2-{[6-({5-chloro-2-[4-({4-[2-(2,6-dioxopiperidin-3-yl)-1,3-dioxo-2,3-dihydro-1H-isoindol-4-yl]piperazin-1-yl}methyl)-4-fluoropiperidin-1-yl]pyrimidin-4-yl}amino)-1-methyl-2-oxo-1,2-dihydroquinolin-3-yl]oxy}-N-methylacetamide]	–	< 10 nM	Dmax (T47D cells): 50 to 70%
CNC(=O)COc1cc2cc(Nc3nc(N4CCC(OC5CN(c6cccc7c6C(=O)N(C6CCC(=O)NC6=O)C7=O)C5)CC4)ncc3Cl)ccc2n(C)c1=O (centres unmarked) [compound 255, 2-((6-((5-chloro-2-(4-((1-(2-(2,6-dioxopiperidin-3-yl)-1,3-dioxoisoindolin-4-yl)azetidin-3-yl)oxy)piperidin-1-yl)pyrimidin-4-yl)amino)-1-methyl-2-oxo-1,2-dihydroquinolin-3-yl)oxy)-N-methylacetamide]	–	–	IC50: < 10 nM; Dmax (T47D): < 50%
CNC(=O)COc1cc2cc(Nc3nc(N4CCC(OCCOCCOCCOCCOCCOc5ccc6c(c5)C(=O)N(C5CCC(=O)NC5=O)C6=O)CC4)ncc3Cl)ccc2n(C)c1=O (centres unmarked) [compound 64, 2-((6-((5-chloro-2-(4-((14-((2-(2,6-dioxopiperidin-3-yl)-1,3-dioxoisoindolin-5-yl)oxy)-3,6,9,12-tetraoxatetradecyl)oxy)piperidin-1-yl)pyrimidin-4-yl)amino)-1-methyl-2-oxo-1,2-dihydroquinolin-3-yl)oxy)-N-methylacetamide]	> 100 nM	–	–
CNC(=O)COc1cc2cc(Nc3nc(N4CCC(OCCOc5cc(-c6scnc6C)ccc5CNC(=O)[C@@H]5C[C@@H](O)CN5C(=O)C(c5cc(C)no5)C(C)C)CC4)ncc3Cl)ccc2n(C)c1=O (stereo partly drawn) [compound 56, (2S,4R)—N-(2-(2-((1-(5-chloro-4-((1-methyl-3-(2-(methylamino)-2-oxoethoxy)-2-oxo-1,2-dihydroquinolin-6-yl)amino)pyrimidin-2-yl)piperidin-4-yl)oxy)ethoxy)-4-(4-methylthiazol-5-yl)benzyl)-4-hydroxy-1-(3-methyl-2-(3-methylisoxazol-5-yl)butanoyl)pyrrolidine-2-carboxamide]	> 100 nM	–	–
CNC(=O)COc1cc2cc(Nc3nc(N4CCN(CC5CCN(c6ccc(C(=O)NC7CCC(=O)NC7=O)[n+]([O-])c6)CC5)CC4)ncc3Cl)ccc2n(C)c1=O (centres unmarked) [compound 377, 5-[4-({4-[5-chloro-4-({1-methyl-3-[(methylcarbamoyl)methoxy]-2-oxo-1,2-dihydroquinolin-6-yl}amino)pyrimidin-2-yl]piperazin-1-yl}methyl)piperidin-1-yl]-2-[(2,6-dioxopiperidin-3-yl)carbamoyl]pyridin-1-ium-1-olate]	–	≥ 100 nM	–
CNC(=O)COc1cc2cc(Nc3nc(N4CCN(CC5CCN(c6ccc7c(c6)C(=O)N(C6CCC(=O)NC6=O)C7=O)CC5)CC4)c(C#N)cc3Cl)ccc2n(C)c1=O (centres unmarked) [compound 297, 2-{[6-({3-chloro-5-cyano-6-[4-({1-[2-(2,6-dioxopiperidin-3-yl)-1,3-dioxo-2,3-dihydro-1H-isoindol-5-yl]piperidin-4-yl}methyl)piperazin-1-yl]pyridin-2-yl}amino)-1-methyl-2-oxo-1,2-dihydroquinolin-3-yl]oxy}-N-methylacetamide]	–	–	IC50: < 10 nM; Dmax (T47D): < 50%
CNC(=O)COc1cc2cc(Nc3nc(N4CCC(CN5[C@H](C)CN(c6ccc(C(=O)NC7CCC(=O)NC7=O)c(OC)c6)C[C@@H]5C)CC4)ncc3Cl)ccc2n(C)c1=O (stereo partly drawn) [compound 347, 4-[(3R,5S)-4-({1-[5-chloro-4-({1-methyl-3-[(methylcarbamoyl)methoxy]-2-oxo-1,2-dihydroquinolin-6-yl}amino)pyrimidin-2-yl]piperidin-4-yl}methyl)-3,5-dimethylpiperazin-1-yl]-N-(2,6-dioxopiperidin-3-yl)-2-methoxybenzamide]	–	< 10 nM	Dmax (T47D cells): 50 to 70%
CNC(=O)COc1cc2cc(Nc3nc(N4CCN(C(C)(C)C5CCN(c6cccc7c6C(=O)N(C6CCC(=O)NC6=O)C7=O)CC5)CC4)ncc3Cl)ccc2n(C)c1=O (centres unmarked) [compound 266, 2-((6-((5-chloro-2-(4-(2-(1-(2-(2,6-dioxopiperidin-3-yl)-1,3-dioxoisoindolin-4-yl)piperidin-4-yl)propan-2-yl)piperazin-1-yl)pyrimidin-4-yl)amino)-1-methyl-2-oxo-1,2-dihydroquinolin-3-yl)oxy)-N-methylacetamide]	–	–	IC50: < 10 nM; Dmax (T47D): ≥ 70%
CNC(=O)COc1cc2cc(Nc3nc(N4CCN(CC5(F)CCN(c6ccc7c(c6)C(=O)N(C6CCC(=O)NC6=O)C7=O)CC5)CC4)ncc3Cl)ccc2n(C)c1=O (centres unmarked) [compound 339, 2-{[6-({5-chloro-2-[4-({1-[2-(2,6-dioxopiperidin-3-yl)-1,3-dioxo-2,3-dihydro-1H-isoindol-5-yl]-4-fluoropiperidin-4-yl}methyl)piperazin-1-yl]pyrimidin-4-yl}amino)-1-methyl-2-oxo-1,2-dihydroquinolin-3-yl]oxy}-N-methylacetamide]	–	< 10 nM	Dmax (T47D cells): 50 to 70%
CNC(=O)COc1cc2cc(Nc3nc(N4CCN(CC5CCN(C(=O)c6ccc(N7CCC(=O)NC7=O)c(OC)c6)CC5)CC4)ncc3Cl)ccc2n(C(C)C)c1=O [compound 408, 2-{[6-({5-chloro-2-[4-({1-[4-(2,4-dioxo-1,3-diazinan-1-yl)-3-methoxybenzoyl]piperidin-4-yl}methyl)piperazin-1-yl]pyrimidin-4-yl}amino)-2-oxo-1-(propan-2-yl)-1,2-dihydroquinolin-3-yl]oxy}-N-methylacetamide]	–	≥ 100 nM	–
CNC(=O)COc1cc2cc(Nc3nc(N4CCC(C5(N6CCC(c7ccc8c(c7)C(=O)N(C7CCC(=O)NC7=O)C8=O)CC6)CC5)CC4)ncc3Cl)ccc2n(C)c1=O (centres unmarked) [compound 482, 2-{[6-({5-chloro-2-[4-(1-{4-[2-(2,6-dioxopiperidin-3-yl)-1,3-dioxo-2,3-dihydro-1H-isoindol-5-yl]piperidin-1-yl}cyclopropyl)piperidin-1-yl]pyrimidin-4-yl}amino)-1-methyl-2-oxo-1,2-dihydroquinolin-3-yl]oxy}-N-methylacetamide]	–	–	Dmax (T47D): 50 to 70%
CNC(=O)COc1cc2cc(Nc3nc(N4CCC(OCCCOCCCOc5ccc6c(c5)CN(C5CCC(=O)NC5=O)C6=O)CC4)ncc3Cl)ccc2n(C)c1=O (centres unmarked) [compound 140, 2-((6-((5-chloro-2-(4-(3-(3-((2-(2,6-dioxopiperidin-3-yl)-1-oxoisoindolin-5-yl)oxy)propoxy)propoxy)piperidin-1-yl)pyrimidin-4-yl)amino)-1-methyl-2-oxo-1,2-dihydroquinolin-3-yl)oxy)-N-methylacetamide]	> 100 nM	–	–
CNC(=O)COc1cc2cc(Nc3nc(N4CCC(Cc5cn(CCOc6ccc7c(c6)C(=O)N(C6CCC(=O)NC6=O)C7=O)nn5)CC4)ncc3Cl)ccc2n(C)c1=O (centres unmarked) [compound 112, 2-((6-((5-chloro-2-(4-((1-(2-((2-(2,6-dioxopiperidin-3-yl)-1,3-dioxoisoindolin-5-yl)oxy)ethyl)-1H-1,2,3-triazol-4-yl)methyl)piperidin-1-yl)pyrimidin-4-yl)amino)-1-methyl-2-oxo-1,2-dihydroquinolin-3-yl)oxy)-N-methylacetamide]	10 to 50 nM	–	–
CNC(=O)COc1cc2cc(Nc3nc(N4CCC(OCCOCCOCCOc5ccc6c(c5)CN(C5CCC(=O)NC5=O)C6=O)CC4)ncc3Cl)ccc2n(C)c1=O (centres unmarked) [compound 65, 2-((6-((5-chloro-2-(4-(2-(2-(2-((2-(2,6-dioxopiperidin-3-yl)-1-oxoisoindolin-5-yl)oxy)ethoxy)ethoxy)ethoxy)piperidin-1-yl)pyrimidin-4-yl)amino)-1-methyl-2-oxo-1,2-dihydroquinolin-3-yl)oxy)-N-methylacetamide]	> 100 nM	–	–
CNC(=O)COc1cc2cc(Nc3nc(N4CCC(Cc5cn(CCOCCOCCOCCOCCOc6ccc7c(c6)C(=O)N(C6CCC(=O)NC6=O)C7=O)nn5)CC4)ncc3Cl)ccc2n(C)c1=O (centres unmarked) [compound 132, 2-((6-((5-chloro-2-(4-((1-(14-((2-(2,6-dioxopiperidin-3-yl)-1,3-dioxoisoindolin-5-yl)oxy)-3,6,9,12-tetraoxatetradecyl)-1H-1,2,3-triazol-4-yl)methyl)piperidin-1-yl)pyrimidin-4-yl)amino)-1-methyl-2-oxo-1,2-dihydroquinolin-3-yl)oxy)-N-methylacetamide]	> 100 nM	–	–
